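Results reflect a 48-hour exposure of cells in 96-well plates to compound at five concentrations. GI50 = concentration required for 50% inhibition of growth. At the TGI there is no net growth.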
Columns and labels:
Assay in all cases: NCI tumour cell line growth inhibition, 48 h
[1] = system: COLO 205 colon
[2] = system: DU-145 prostate
[3] = system: HCC-2998 colon
[4] = system: HOP-62 NSCLC
[5] = system: NCI-H460 lung
[6] = system: OVCAR-5 ovarian
[7] = system: SF-295 CNS
[8] = system: SNB-19 CNS
[9] = system: SNB-75 CNS
[10] = system: TK-10 renal
[11] = system: UACC-62 melanoma
[12] = system: A498 renal

| SMILES | TGI [1] [µM] | TGI [2] [µM] | TGI [3] [µM] | TGI [4] [µM] | TGI [5] [µM] | TGI [6] [µM] | TGI [7] [µM] | TGI [8] [µM] | TGI [9] [µM] | TGI [10] [µM] | TGI [11] [µM] | TGI [12] [µM] | GI50 [12] [µM] | GI50 [2] [µM] | GI50 [4] [µM] | GI50 [6] [µM] | GI50 [7] [µM] | GI50 [9] [µM] | GI50 [10] [µM] | GI50 [11] [µM] |
| --- | --- | --- | --- | --- | --- | --- | --- | --- | --- | --- | --- | --- | --- | --- | --- | --- | --- | --- | --- | --- |
| CS(C)(=O)=N/C=C\C(=O)C(Cl)(Cl)Cl | > 100 | > 100 | > 100 | > 100 | > 100 | > 100 | > 100 | > 100 | > 100 | > 100 | > 100 | – | – | – | – | – | – | – | – | – |
| C=C1CC(OC(C)=O)/C=C(/C)CCC(C(C)(C)O)CC1O (configuration not stated) | > 100 | > 100 | > 100 | > 100 | > 100 | > 100 | > 100 | > 100 | – | > 100 | > 100 | > 100 | – | – | – | – | – | – | – | – |
| CCN(CC)CCN1C(=O)c2cccc3c(-c4ccc5c(c4)ncn5C4CCCCC4)ccc(c23)C1=O | – | 3.2 | – | 3.05 | – | 4.04 | 2.69 | – | 2.4 | 4.39 | 3.03 | 3.22 | 1.65 | 1.59 | 1.46 | 1.72 | 1.18 | 1.05 | 1.76 | 1.56 |
| C1CNCCN2CCCNCCN(C1)CC2 | > 100 | > 100 | – | > 100 | > 100 | > 100 | > 100 | > 100 | > 100 | > 100 | > 100 | > 100 | – | – | – | – | – | – | – | – |
| CC(C)OP(=O)(OC(C)C)C(C(F)(F)F)C(F)(F)F | > 100 | > 100 | > 100 | > 100 | – | > 100 | > 100 | > 100 | > 100 | > 100 | > 100 | – | – | – | – | – | – | – | – | – |
| CN(c1c(Cl)cccc1Cl)S(=O)(=O)c1ccccc1[N+](=O)[O-] | > 100 | > 100 | > 100 | > 100 | > 100 | > 100 | > 100 | > 100 | > 100 | > 100 | > 100 | – | – | – | – | – | – | – | – | – |
| Nc1[nH]c(=O)nc2sc3c(c12)CCCC3 | > 100 | > 100 | > 100 | > 100 | > 100 | > 100 | – | > 100 | 64.4 | > 100 | > 100 | – | – | – | – | – | – | – | – | – |
| C#CCNC(=O)CCC(N)C(=O)O (configuration not stated) | > 100 | – | > 100 | > 100 | > 100 | > 100 | > 100 | > 100 | > 100 | – | > 100 | > 100 | – | – | – | – | – | – | – | – |
| CN(C)c1nc(N(C)C)nc(N(C)CN(C)c2ccccc2)n1 | – | – | > 100 | – | > 100 | – | > 100 | > 100 | > 100 | > 100 | > 100 | – | – | – | – | – | – | – | – | – |
| CCCCc1ccc(Nc2nc3c(ncn3C3OC(COC(C)=O)C(OC(C)=O)C3OC(C)=O)c(=O)[nH]2)cc1 (configuration not stated) | 37.7 | 90.6 | 35.5 | 35.5 | 32.7 | > 100 | 53.1 | 81.5 | – | > 100 | 34.7 | > 100 | – | – | – | – | – | – | – | – |
| Cc1ccnc(NS(=O)(=O)c2ccc(NC(=O)c3ccc4nc5ccccc5c(Nc5ccc(S(=O)(=O)Nc6nccc(C)n6)cc5)c4c3)cc2)n1 | > 100 | > 100 | > 100 | > 100 | > 100 | > 100 | > 100 | > 100 | > 100 | > 100 | > 100 | – | – | – | – | – | – | – | – | – |
| CC(=O)OCC1C(C(C)OC(C)=O)CCC2C1CCC1(C)C(OC(C)=O)CCC21 (configuration not stated) | – | > 100 | 33.5 | 38.5 | 31.8 | > 100 | 41.4 | 42.5 | – | > 100 | 26.3 | 41.4 | – | – | – | – | – | – | – | – |
| CN(C)C(=S)Nc1nnc(NC23CC4CC(CC(C4)C2)C3)s1 | 44.1 | – | 35.5 | 33.9 | 26.8 | – | 30.7 | 41.2 | – | > 100 | 32.6 | 37.3 | – | – | – | – | – | – | – | – |
| C=CCCCCOC1C=CC(OC(C)=O)C(COC(C)=O)O1 (configuration not stated) | > 100 | > 100 | > 100 | > 100 | > 100 | > 100 | > 100 | > 100 | – | > 100 | > 100 | > 100 | – | – | – | – | – | – | – | – |
| O=[N+]([O-])c1cc2n[nH]nc2c2nonc12 | 71.5 | > 100 | 38.7 | > 100 | > 100 | 76.5 | > 100 | > 100 | > 100 | > 100 | – | – | – | – | – | – | – | – | – | – |
| C=C1C(=O)OC2/C=C(\C)CC/C=C(/C)CC(OC(=O)/C(=C/CO)CO)C12 (configuration not stated) | 33 | 33.1 | 41.3 | > 100 | > 100 | 36.8 | > 100 | > 100 | > 100 | 34.5 | 33.1 | – | – | – | – | – | – | – | – | – |
| O=C(O)CC(NC(=O)C(F)(F)F)C(=O)NC1Cc2ccccc2OC1=O (configuration not stated) | – | > 100 | > 100 | > 100 | > 100 | > 100 | > 100 | > 100 | > 100 | > 100 | > 100 | – | – | – | – | – | – | – | – | – |
| COc1ccc2nc(-c3ccc(OC(=O)N(C)C)cc3)cn2c1 | > 100 | – | > 100 | > 100 | > 100 | > 100 | > 100 | > 100 | > 100 | > 100 | > 100 | > 100 | – | – | – | – | – | – | – | – |
| CCCCCCc1nn2c(-c3ccc(C)cc3)nnc2s1 | > 100 | > 100 | – | > 100 | > 100 | > 100 | > 100 | > 100 | > 100 | > 100 | > 100 | > 100 | – | – | – | – | – | – | – | – |
| CSCCC(NC(=O)C(Cc1ccccc1)NC(=O)CNC(=O)CNC(=O)C(N)Cc1ccc(O)cc1)C(=O)O (configuration not stated) | > 100 | – | > 100 | > 100 | > 100 | > 100 | > 100 | > 100 | > 100 | – | > 100 | > 100 | – | – | – | – | – | – | – | – |

— PubChem BioAssay (NCI)
